Reference: ChEMBL document CHEMBL5321219, “Selective degradation of cellular BRD3 and BRD4-L promoted by PROTAC molecules in six cancer cell lines” (Eur J Med Chem, 2023)
Calls of active or inactive are those of the source. No cut-off for these calls is given here.

Experiments:
MM1.S [1] = experiment: Induction of cell cycle arrest in human MM1.S cells assessed as accumulation of cells at G1 phase at 3 nM incubated for 24 hrs by flow cytometry analysis (reference value: 56.32%); assay type: functional
MM1.S [2] = experiment: Induction of cell cycle arrest in human MM1.S cells assessed as accumulation of cells at G1 phase at 30 nM incubated for 24 hrs by flow cytometry analysis (reference value: 56.32%); assay type: functional
[3] = target: T1, Protein cereblon/Bromodomain-containing protein 3 (Homo sapiens) (UniProt Q15059+Q96SW2); experiment: PROTAC activity at CRBN/BRD3 in human MCF7 cells assessed as induction of protein degradation at 30 nM by Western blot analysis; assay type: cell-based; details: time 1-3 hrs, TDE = time-dependent effect
MM1.S [4] = experiment: Downregulation of c-Myc protein expression in human MM1.S cells at 0.1 to 30 nM measured after 24 hrs by Western blot analysis; assay type: functional, cell-based; details: dose 0.1-30 nM
MV4-11 = experiment: Antiproliferative activity against human MV4-11 cells assessed as cell growth inhibition measured after 3 days by CellTitre-Glo assay; assay type: functional, cell-based; details: MV4-11, 72 h
[5] = target: T2, Protein cereblon/Bromodomain-containing protein 4 (Homo sapiens) (UniProt O60885+Q96SW2); experiment: PROTAC activity at CRBN/BRD4-S in human MCF7 cells assessed as induction of protein degradation at 1 to 300 nM measured after 24 hrs by Western blot analysis; assay type: cell-based; details: dose 1-300 nM
MM1.S [6] = experiment: Induction of cell cycle arrest in human MM1.S cells assessed as accumulation of cells at S phase at 100 nM incubated for 24 hrs by flow cytometry analysis (reference value: 22.37%); assay type: functional
[7] = target: T1, Protein cereblon/Bromodomain-containing protein 3 (Homo sapiens); experiment: PROTAC activity at CRBN/BRD3 in human HepG2 cells assessed as induction of protein degradation measured after 24 hrs by Western blot analysis; assay type: cell-based; details: dose 10-3000 nM
MM1.S [8] = experiment: Induction of cell cycle arrest in human MM1.S cells assessed as accumulation of cells at G1 phase at 10 nM incubated for 24 hrs by flow cytometry analysis (reference value: 56.32%); assay type: functional
[9] = target: T1, Protein cereblon/Bromodomain-containing protein 3 (Homo sapiens); experiment: PROTAC activity at CRBN/BRD3 in human MM1.S cells assessed as induction of protein degradation at 30 nM pretreated with 0.2 to 10 uM MG132 for 2 hrs followed by compound addition and measured after 4 hrs by Western blot analysis; assay type: cell-based
[10] = target: T2, Protein cereblon/Bromodomain-containing protein 4 (Homo sapiens); experiment: PROTAC activity at CRBN/BRD4-S in human HepG2 cells assessed as induction of protein degradation at 10 to 3000 nM measured after 24 hrs by Western blot analysis; assay type: cell-based; details: dose 10-3000 nM
[11] = target: T1, Protein cereblon/Bromodomain-containing protein 3 (Homo sapiens); experiment: PROTAC activity at CRBN/BRD3 in human MM1.S cells assessed as induction of protein degradation at 30 nM by Western blot analysis; assay type: cell-based; details: TDE = time-dependent effect
[12] = target: T3, Protein cereblon/Bromodomain-containing protein 2 (Homo sapiens) (UniProt P25440+Q96SW2); experiment: PROTAC activity at CRBN/BRD2 in human MCF7 cells assessed as induction of protein degradation at 30 nM measured around 24 hrs by Western blot analysis; assay type: cell-based
[13] = target: T1, Protein cereblon/Bromodomain-containing protein 3 (Homo sapiens); experiment: PROTAC activity at CRBN/BRD3 in human HGC-27 cells assessed as induction of protein degradation at 30 nM measured after 8 to 24 hrs by Western blot analysis; assay type: cell-based; details: time 8-24 hrs
MM1.S [14] = experiment: Induction of cell cycle arrest in human MM1.S cells assessed as accumulation of cells at G2 phase at 1 nM incubated for 24 hrs by flow cytometry analysis (reference value: 14.68%); assay type: functional
[15] = target: T2, Protein cereblon/Bromodomain-containing protein 4 (Homo sapiens); experiment: PROTAC activity at CRBN/BRD4-L in human MCF7 cells assessed as induction of protein degradation at 30 nM by Western blot analysis; assay type: cell-based; details: time 1-3 hrs, TDE = time-dependent effect
[16] = target: T1, Protein cereblon/Bromodomain-containing protein 3 (Homo sapiens); experiment: PROTAC activity at CRBN/BRD3 in human MCF7 cells assessed as induction of protein degradation at 30 nM measured after 3 to 6 hrs by Western blot analysis; assay type: cell-based; details: time 3-6 hrs
[17] = target: T1, Protein cereblon/Bromodomain-containing protein 3 (Homo sapiens); experiment: PROTAC activity at CRBN/BRD3 in human MM1.S cells assessed as induction of protein degradation measured after 24 hrs by Western blot analysis; assay type: cell-based
[18] = target: T2, Protein cereblon/Bromodomain-containing protein 4 (Homo sapiens); experiment: PROTAC activity at CRBN/BRD4-L in human MM1.S cells assessed as induction of protein degradation at 2 nM measured after 24 hrs by Western blot analysis; assay type: cell-based
MM1.S [19] = experiment: Induction of cell cycle arrest in human MM1.S cells assessed as accumulation of cells at G2 phase at 3 nM incubated for 24 hrs by flow cytometry analysis (reference value: 14.68%); assay type: functional
[20] = target: T3, Protein cereblon/Bromodomain-containing protein 2 (Homo sapiens); experiment: PROTAC activity at CRBN/BRD2 in human U-937 cells assessed as induction of protein degradation by Western blot analysis; assay type: cell-based
[21] = target: T2, Protein cereblon/Bromodomain-containing protein 4 (Homo sapiens); experiment: PROTAC activity at CRBN/BRD4-L in human MM1.S cells assessed as induction of protein degradation at 30 nM pretreated with 0.2 to 10 uM MG132 for 2 hrs followed by compound addition and measured after 4 hrs by Western blot analysis; assay type: cell-based
MCF7 = experiment: Antiproliferative activity against human MCF7 cells assessed as cell growth inhibition measured after 4 days by CCK-8 assay; assay type: functional, cell-based; details: MCF7, 96 h
MM1.S [22] = experiment: Antiproliferative activity against human MM1.S cells assessed as cell growth inhibition measured after 4 days by CellTitre-Glo assay; assay type: functional, cell-based; details: 96 h
[23] = target: T3, Protein cereblon/Bromodomain-containing protein 2 (Homo sapiens); experiment: PROTAC activity at CRBN/BRD2 in human HGC-27 cells assessed as induction of protein degradation at 0.1 to 30 nM measured after 24 hrs by Western blot analysis; assay type: cell-based; details: dose 0.1-30 nM
MM1.S [24] = experiment: Induction of cell cycle arrest in human MM1.S cells assessed as accumulation of cells at G2 phase at 300 nM incubated for 24 hrs by flow cytometry analysis (reference value: 14.68%); assay type: functional
MM1.S [25] = experiment: Induction of cell cycle arrest in human MM1.S cells assessed as accumulation of cells at G2 phase at 100 nM incubated for 24 hrs by flow cytometry analysis (reference value: 14.68%); assay type: functional
[26] = target: T2, Protein cereblon/Bromodomain-containing protein 4 (Homo sapiens); experiment: PROTAC activity at CRBN/BRD4-L in human MCF7 cells assessed as induction of protein degradation measured after 24 hrs by Western blot analysis; assay type: cell-based; details: dose 1-300 nM
[27] = target: T2, Protein cereblon/Bromodomain-containing protein 4 (Homo sapiens); experiment: PROTAC activity at CRBN/BRD4-L in human MM1.S cells assessed as induction of protein degradation at 30 nM pretreated with lenalidomide for 2 hrs followed by compound addition and measured after 4 hrs by Western blot analysis; assay type: cell-based
[28] = target: T1, Protein cereblon/Bromodomain-containing protein 3 (Homo sapiens); experiment: PROTAC activity at CRBN/BRD3 in human MV4-11 cells assessed as induction of protein degradation at 0.1 to 10 nM measured after 24 hrs by Western blot analysis; assay type: cell-based; details: dose 0.1-10 nM
[29] = target: T2, Protein cereblon/Bromodomain-containing protein 4 (Homo sapiens); experiment: PROTAC activity at CRBN/BRD4-S in human HeLa cells assessed as induction of protein degradation at 1 to 300 nM measured after 24 hrs by Western blot analysis; assay type: cell-based; details: dose 1-300 nM
[30] = target: Bromodomain-containing protein 3 (Homo sapiens, UniProt Q15059); experiment: Binding affinity to recombinant human BRD3 BD1 (24 to 144 residues) assessed as inhibition constant by fluorescence polarization binding assay
[31] = target: T1, Protein cereblon/Bromodomain-containing protein 3 (Homo sapiens); experiment: PROTAC activity at CRBN/BRD3 in human HGC-27 cells assessed as induction of protein degradation measured after 24 hrs by Western blot analysis; assay type: cell-based; details: dose 0.1-30 nM

T3 sequence (P25440 whole entry, looked up): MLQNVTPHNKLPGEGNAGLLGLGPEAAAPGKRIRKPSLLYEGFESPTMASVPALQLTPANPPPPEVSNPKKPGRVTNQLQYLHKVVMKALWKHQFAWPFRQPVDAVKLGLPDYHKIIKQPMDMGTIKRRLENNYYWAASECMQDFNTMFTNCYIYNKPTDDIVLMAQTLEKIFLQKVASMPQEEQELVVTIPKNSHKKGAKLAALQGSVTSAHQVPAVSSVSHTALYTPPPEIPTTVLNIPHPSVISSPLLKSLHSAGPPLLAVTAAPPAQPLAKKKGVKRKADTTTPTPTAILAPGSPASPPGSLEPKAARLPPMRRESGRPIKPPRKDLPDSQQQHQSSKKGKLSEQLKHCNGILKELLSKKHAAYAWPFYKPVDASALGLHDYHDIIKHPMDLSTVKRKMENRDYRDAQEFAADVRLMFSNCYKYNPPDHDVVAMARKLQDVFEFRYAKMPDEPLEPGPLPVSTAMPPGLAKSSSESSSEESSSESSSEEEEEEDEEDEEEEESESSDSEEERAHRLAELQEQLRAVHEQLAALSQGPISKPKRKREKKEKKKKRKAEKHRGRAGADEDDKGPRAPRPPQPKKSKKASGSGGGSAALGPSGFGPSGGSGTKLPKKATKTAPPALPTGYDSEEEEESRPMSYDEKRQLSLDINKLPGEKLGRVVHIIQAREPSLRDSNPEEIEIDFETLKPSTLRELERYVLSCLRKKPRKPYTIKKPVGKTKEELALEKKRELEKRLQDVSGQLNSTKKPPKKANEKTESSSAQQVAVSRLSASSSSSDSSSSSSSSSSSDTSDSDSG
T3 sequence (Q96SW2 whole entry, looked up): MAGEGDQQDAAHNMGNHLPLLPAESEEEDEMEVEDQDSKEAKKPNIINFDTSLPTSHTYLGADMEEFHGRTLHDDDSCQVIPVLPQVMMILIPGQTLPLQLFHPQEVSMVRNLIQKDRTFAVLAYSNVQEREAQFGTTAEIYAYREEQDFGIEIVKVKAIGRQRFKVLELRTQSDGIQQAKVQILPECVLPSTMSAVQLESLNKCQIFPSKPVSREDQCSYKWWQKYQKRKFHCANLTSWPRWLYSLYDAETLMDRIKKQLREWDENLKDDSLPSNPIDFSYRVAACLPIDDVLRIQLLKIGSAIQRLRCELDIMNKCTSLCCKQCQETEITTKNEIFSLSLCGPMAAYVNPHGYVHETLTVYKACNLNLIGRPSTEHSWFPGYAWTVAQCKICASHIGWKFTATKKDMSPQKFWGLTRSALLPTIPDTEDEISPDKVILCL
T1 sequence (Q15059 2-726 limits assumed): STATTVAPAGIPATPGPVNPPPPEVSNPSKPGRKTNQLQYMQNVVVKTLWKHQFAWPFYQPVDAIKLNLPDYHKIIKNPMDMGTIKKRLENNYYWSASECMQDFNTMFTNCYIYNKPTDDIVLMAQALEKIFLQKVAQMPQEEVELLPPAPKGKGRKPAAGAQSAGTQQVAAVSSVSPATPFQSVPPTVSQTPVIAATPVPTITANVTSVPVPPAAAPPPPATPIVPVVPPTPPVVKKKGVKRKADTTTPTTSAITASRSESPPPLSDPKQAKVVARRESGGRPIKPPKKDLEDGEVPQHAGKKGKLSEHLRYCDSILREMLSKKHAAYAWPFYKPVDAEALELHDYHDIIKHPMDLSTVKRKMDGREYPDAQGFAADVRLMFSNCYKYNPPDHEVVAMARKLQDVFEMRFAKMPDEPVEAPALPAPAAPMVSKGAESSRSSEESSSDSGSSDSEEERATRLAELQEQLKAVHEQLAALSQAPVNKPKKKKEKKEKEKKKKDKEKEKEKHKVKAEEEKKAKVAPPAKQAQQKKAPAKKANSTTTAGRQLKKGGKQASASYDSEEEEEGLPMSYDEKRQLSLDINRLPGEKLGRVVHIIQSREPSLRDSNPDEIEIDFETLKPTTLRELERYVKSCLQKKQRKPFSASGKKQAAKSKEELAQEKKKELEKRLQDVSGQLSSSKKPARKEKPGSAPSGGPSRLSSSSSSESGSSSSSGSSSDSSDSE
T1 sequence (Q96SW2 whole entry partner): as the sequence (Q96SW2 whole entry, looked up) above
T2 sequence (Q96SW2 whole entry, looked up, other chains not shown): as the sequence (Q96SW2 whole entry, looked up) above
Chain of Bromodomain-containing protein 3 (Q15059 whole entry, the tested form may be a part): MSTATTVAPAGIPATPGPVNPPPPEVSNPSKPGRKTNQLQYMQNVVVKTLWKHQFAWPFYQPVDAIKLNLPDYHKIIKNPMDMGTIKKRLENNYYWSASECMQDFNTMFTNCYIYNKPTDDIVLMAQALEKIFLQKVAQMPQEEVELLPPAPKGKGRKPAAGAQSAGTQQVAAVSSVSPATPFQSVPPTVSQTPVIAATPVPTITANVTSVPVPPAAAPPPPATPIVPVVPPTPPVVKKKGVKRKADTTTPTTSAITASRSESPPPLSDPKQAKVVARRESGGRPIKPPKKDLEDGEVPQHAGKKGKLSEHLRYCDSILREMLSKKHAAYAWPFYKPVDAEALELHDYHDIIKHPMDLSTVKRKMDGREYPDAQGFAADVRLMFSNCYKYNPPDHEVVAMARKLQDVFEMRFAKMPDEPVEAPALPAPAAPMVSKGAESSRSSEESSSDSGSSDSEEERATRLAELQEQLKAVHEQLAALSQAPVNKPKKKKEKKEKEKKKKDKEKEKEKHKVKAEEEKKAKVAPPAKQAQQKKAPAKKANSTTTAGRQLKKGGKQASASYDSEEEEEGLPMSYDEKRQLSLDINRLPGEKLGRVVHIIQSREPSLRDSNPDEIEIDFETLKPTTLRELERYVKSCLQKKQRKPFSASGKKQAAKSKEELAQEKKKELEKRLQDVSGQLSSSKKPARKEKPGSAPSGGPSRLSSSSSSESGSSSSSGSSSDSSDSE

Activity [3]: Tde
IC50 (MV4-11): 6.31 nM
Activity [5]: inactive
Activity [7]: Dose-Dependent Effect
Activity [9]: inactive
Activity [10]: inactive
Activity [11]: Tde
Activity [12]: Active
Activity [13]: Active
Activity [15]: Tde
Activity [16]: Active
Activity [17]: Dose-Dependent Effect
Activity [18]: Active
Activity [20]: Dose-Dependent Effect
Activity [21]: inactive
IC50 (MCF7): 230 nM
IC50 (MM1.S [22]): 95.2 nM
Activity [23]: inactive
Activity [26]: Dose-Dependent Effect
Activity [27]: inactive
Activity [28]: inactive
Activity [29]: inactive
Ki [30]: 12 nM
Activity [31]: Dose-Dependent Effect
SMILES: Cc1nnc2n1-c1ccc(-c3ccc(CNCCCCc4cccc5c4CN(C4CCC(=O)NC4=O)C5=O)cc3)cc1C(Nc1ccc(Cl)cc1)CC2 (stereo not drawn)
Activity (MM1.S [1]): 62.34%
Activity (MM1.S [2]): 65.17%
Activity (MM1.S [4]): Active
Activity (MM1.S [6]): 13.23%
Activity (MM1.S [8]): 63.9%
Activity (MM1.S [14]): 15.24%
Activity (MM1.S [19]): 20.58%
Activity (MM1.S [24]): 15.38%
Activity (MM1.S [25]): 16.63%
